How the values were obtained:
[1] = biological target: Interleukin-1 receptor-associated kinase 1 (Homo sapiens) (UniProt P51617); conditions: Compound concentration 1000.0 nM
[2] = biological target: Serine/threonine-protein kinase Nek2 (Homo sapiens) (UniProt P51955); conditions: Compound concentration 1000.0 nM
[3] = biological target: Serine/threonine-protein kinase LATS1 (Homo sapiens) (UniProt O95835); conditions: Compound concentration 1000.0 nM
[4] = biological target: Activin receptor type-1 (Homo sapiens) (UniProt Q04771); conditions: Compound concentration 1000.0 nM
[5] = biological target: Phosphatidylinositol 4-kinase beta (Homo sapiens) (UniProt Q9UBF8); conditions: Compound concentration 1000.0 nM
[6] = biological target: Serine/threonine-protein kinase 32C (Homo sapiens) (UniProt Q86UX6); conditions: Compound concentration 1000.0 nM
[7] = biological target: Delta-type opioid receptor (Homo sapiens) (UniProt P41143); conditions: Compound concentration 10.0 uM
[8] = biological target: Phosphatidylinositol 4,5-bisphosphate 3-kinase catalytic subunit delta isoform (Homo sapiens) (UniProt O00329); conditions: Compound concentration 1000.0 nM
[9] = biological target: Tyrosine-protein kinase FRK (Homo sapiens) (UniProt P42685); conditions: Compound concentration 1000.0 nM
[10] = biological target: Ephrin type-A receptor 7 (Homo sapiens) (UniProt Q15375); conditions: Compound concentration 1000.0 nM
[11] = biological target: Dual specificity tyrosine-phosphorylation-regulated kinase 1A (Homo sapiens) (UniProt Q13627); conditions: Compound concentration 1000.0 nM
[12] = biological target: Serine/threonine-protein kinase SBK1 (Homo sapiens) (UniProt Q52WX2); conditions: Compound concentration 1000.0 nM
[13] = biological target: Serine/threonine-protein kinase PAK 2 (Homo sapiens) (UniProt Q13177); conditions: Compound concentration 1000.0 nM
[14] = biological target: Cyclin-dependent kinase 4 (Homo sapiens) (UniProt P11802); conditions: Compound concentration 1000.0 nM
[15] = tested on: Epidermal growth factor receptor (Homo sapiens), P00533 [L858R,T790M]; conditions: Compound concentration 1000.0 nM
[16] = biological target: Serine/threonine-protein kinase BRSK2 (Homo sapiens) (UniProt Q8IWQ3); conditions: Compound concentration 1000.0 nM
[17] = biological target: Tyrosine-protein kinase BTK (Homo sapiens) (UniProt Q06187); conditions: Compound concentration 1000.0 nM
[18] = tested on: Mast/stem cell growth factor receptor Kit (Homo sapiens), P10721 [A829P]; conditions: Compound concentration 1000.0 nM
[19] = tested on: Hepatocyte growth factor receptor (Homo sapiens), P08581 [M1250T]; conditions: Compound concentration 1000.0 nM
[20] = biological target: Casein kinase I isoform delta (Homo sapiens) (UniProt P48730); conditions: Compound concentration 1000.0 nM
[21] = biological target: Receptor tyrosine-protein kinase erbB-3 (Homo sapiens) (UniProt P21860); conditions: Compound concentration 1000.0 nM
[22] = biological target: cGMP-dependent protein kinase 1 (Homo sapiens) (UniProt Q13976); conditions: Compound concentration 1000.0 nM
[23] = biological target: Serine/threonine-protein kinase 3 (Homo sapiens) (UniProt Q13188); conditions: Compound concentration 1000.0 nM
[24] = biological target: T1, Alpha-1A adrenergic receptor (Homo sapiens) (UniProt P35348); conditions: Compound concentration 10.0 uM
T1 sequence (whole entry): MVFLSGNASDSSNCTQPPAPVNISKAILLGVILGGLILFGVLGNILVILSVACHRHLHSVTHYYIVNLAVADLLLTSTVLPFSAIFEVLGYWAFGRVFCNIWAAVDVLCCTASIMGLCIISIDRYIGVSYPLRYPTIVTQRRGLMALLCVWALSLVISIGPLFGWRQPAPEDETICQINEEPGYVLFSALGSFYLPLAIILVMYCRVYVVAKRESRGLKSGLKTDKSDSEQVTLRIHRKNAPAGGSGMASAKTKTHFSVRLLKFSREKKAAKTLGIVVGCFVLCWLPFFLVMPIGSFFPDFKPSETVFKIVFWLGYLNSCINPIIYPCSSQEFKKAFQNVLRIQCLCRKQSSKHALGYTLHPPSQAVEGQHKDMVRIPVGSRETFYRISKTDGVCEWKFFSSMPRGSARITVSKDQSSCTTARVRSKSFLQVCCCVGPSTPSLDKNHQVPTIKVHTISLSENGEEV

[25] = biological target: Cyclin-dependent kinase-like 5 (Homo sapiens) (UniProt O76039); conditions: Compound concentration 1000.0 nM
[26] = tested on: Epidermal growth factor receptor (Homo sapiens), P00533 [T790M]; conditions: Compound concentration 1000.0 nM
[27] = tested on: Tyrosine-protein kinase ABL1 (Homo sapiens), P00519 [T315I]; conditions: Compound concentration 1000.0 nM
[28] = biological target: 1-phosphatidylinositol 3-phosphate 5-kinase (Homo sapiens) (UniProt Q9Y2I7); conditions: Compound concentration 1000.0 nM
[29] = tested on: Phosphatidylinositol 4,5-bisphosphate 3-kinase catalytic subunit alpha isoform (Homo sapiens), P42336 [Q546K]; conditions: Compound concentration 1000.0 nM
[30] = biological target: Tyrosine-protein kinase ABL1 (Homo sapiens) (UniProt P00519); conditions: Compound concentration 1000.0 nM
[31] = tested on: Phosphatidylinositol 4,5-bisphosphate 3-kinase catalytic subunit alpha isoform (Homo sapiens), P42336 [I800L]; conditions: Compound concentration 1000.0 nM
[32] = biological target: Serine/threonine-protein kinase RIO3 (Homo sapiens) (UniProt O14730); conditions: Compound concentration 1000.0 nM
[33] = biological target: Inhibitor of nuclear factor kappa-B kinase subunit beta (Homo sapiens) (UniProt O14920); conditions: Compound concentration 1000.0 nM
[34] = biological target: Serine/threonine-protein kinase TAO3 (Homo sapiens) (UniProt Q9H2K8); conditions: Compound concentration 1000.0 nM
[35] = biological target: Tyrosine-protein kinase Tec (Homo sapiens) (UniProt P42680); conditions: Compound concentration 1000.0 nM
[36] = biological target: Histamine H2 receptor (Homo sapiens) (UniProt P25021); conditions: Compound concentration 10.0 uM
[37] = biological target: Serine/threonine-protein kinase Nek4 (Homo sapiens) (UniProt P51957); conditions: Compound concentration 1000.0 nM
[38] = biological target: Cyclin-dependent kinase-like 3 (Homo sapiens) (UniProt Q8IVW4); conditions: Compound concentration 1000.0 nM
[39] = biological target: Ribosomal protein S6 kinase alpha-1 (Homo sapiens) (UniProt Q15418); conditions: Compound concentration 1000.0 nM

Chain of Casein kinase I isoform delta (Homo sapiens) (P48730 whole entry, looked up, canonical isoform): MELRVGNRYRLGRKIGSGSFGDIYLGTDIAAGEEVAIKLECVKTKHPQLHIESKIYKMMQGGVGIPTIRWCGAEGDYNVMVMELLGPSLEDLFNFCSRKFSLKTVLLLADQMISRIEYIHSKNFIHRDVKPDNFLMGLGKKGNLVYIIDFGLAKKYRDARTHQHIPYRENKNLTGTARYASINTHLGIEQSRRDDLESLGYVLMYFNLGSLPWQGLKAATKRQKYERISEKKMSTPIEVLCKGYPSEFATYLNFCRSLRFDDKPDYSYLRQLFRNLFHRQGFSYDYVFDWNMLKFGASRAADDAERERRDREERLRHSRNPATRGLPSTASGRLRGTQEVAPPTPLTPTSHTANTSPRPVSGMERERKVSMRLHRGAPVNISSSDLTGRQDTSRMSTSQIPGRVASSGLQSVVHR
Chain of Receptor tyrosine-protein kinase erbB-3 (Homo sapiens) (P21860 whole entry): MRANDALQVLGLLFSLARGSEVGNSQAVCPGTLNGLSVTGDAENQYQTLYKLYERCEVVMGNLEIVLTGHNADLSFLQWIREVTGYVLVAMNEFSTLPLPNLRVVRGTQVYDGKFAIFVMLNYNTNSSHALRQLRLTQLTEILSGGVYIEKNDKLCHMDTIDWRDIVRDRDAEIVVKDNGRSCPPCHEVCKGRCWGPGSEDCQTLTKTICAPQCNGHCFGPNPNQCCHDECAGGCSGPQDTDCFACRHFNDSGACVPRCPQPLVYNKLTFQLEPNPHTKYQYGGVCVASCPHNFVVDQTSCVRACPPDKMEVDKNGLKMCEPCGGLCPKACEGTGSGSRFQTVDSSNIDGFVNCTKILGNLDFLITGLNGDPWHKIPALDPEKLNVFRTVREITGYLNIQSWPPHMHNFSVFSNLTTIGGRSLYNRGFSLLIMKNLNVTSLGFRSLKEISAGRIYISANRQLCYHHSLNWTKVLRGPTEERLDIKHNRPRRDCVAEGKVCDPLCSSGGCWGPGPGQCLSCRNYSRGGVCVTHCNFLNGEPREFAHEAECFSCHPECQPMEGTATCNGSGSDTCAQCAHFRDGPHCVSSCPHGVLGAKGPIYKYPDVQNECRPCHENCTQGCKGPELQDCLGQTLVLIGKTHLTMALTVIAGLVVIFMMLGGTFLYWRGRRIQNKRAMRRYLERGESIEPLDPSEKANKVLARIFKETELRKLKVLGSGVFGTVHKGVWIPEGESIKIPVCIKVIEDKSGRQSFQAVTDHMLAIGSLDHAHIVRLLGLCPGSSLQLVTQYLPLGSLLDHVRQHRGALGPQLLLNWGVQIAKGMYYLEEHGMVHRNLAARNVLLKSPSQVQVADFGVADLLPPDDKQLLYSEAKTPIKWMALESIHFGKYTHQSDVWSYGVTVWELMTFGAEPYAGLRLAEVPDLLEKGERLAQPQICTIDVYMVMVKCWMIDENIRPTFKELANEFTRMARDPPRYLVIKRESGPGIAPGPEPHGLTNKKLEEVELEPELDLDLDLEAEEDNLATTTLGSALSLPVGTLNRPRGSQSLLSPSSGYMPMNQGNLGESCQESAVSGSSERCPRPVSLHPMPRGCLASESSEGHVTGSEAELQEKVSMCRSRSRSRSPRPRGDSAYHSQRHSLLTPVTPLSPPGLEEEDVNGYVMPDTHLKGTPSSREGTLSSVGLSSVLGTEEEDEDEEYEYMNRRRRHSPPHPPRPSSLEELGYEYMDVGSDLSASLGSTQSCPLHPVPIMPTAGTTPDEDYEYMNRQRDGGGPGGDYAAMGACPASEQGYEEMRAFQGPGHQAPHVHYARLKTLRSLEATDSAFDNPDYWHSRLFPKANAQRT
Chain of Cyclin-dependent kinase 4 (Homo sapiens) (P11802 whole entry): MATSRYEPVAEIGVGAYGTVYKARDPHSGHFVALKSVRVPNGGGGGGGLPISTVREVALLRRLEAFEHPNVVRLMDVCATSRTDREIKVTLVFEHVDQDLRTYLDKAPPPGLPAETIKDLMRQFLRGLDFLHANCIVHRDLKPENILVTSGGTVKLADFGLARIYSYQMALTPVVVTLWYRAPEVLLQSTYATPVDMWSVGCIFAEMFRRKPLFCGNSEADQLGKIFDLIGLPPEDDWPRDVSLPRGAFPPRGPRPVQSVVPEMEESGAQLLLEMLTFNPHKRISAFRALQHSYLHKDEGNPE
Chain of Serine/threonine-protein kinase SBK1 (Homo sapiens) (Q52WX2 whole entry): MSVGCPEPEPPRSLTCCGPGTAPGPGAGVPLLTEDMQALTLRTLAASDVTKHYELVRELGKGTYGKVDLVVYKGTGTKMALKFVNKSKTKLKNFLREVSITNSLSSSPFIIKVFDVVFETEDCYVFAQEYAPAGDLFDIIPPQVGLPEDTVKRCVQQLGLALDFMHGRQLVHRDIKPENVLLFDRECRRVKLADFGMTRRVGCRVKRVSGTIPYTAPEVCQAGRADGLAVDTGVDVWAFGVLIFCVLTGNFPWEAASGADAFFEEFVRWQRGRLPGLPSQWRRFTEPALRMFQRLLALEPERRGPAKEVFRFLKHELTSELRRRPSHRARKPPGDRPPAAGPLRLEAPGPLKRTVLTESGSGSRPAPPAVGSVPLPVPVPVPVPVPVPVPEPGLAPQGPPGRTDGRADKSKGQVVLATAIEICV
Chain of Tyrosine-protein kinase FRK (Homo sapiens) (P42685 whole entry): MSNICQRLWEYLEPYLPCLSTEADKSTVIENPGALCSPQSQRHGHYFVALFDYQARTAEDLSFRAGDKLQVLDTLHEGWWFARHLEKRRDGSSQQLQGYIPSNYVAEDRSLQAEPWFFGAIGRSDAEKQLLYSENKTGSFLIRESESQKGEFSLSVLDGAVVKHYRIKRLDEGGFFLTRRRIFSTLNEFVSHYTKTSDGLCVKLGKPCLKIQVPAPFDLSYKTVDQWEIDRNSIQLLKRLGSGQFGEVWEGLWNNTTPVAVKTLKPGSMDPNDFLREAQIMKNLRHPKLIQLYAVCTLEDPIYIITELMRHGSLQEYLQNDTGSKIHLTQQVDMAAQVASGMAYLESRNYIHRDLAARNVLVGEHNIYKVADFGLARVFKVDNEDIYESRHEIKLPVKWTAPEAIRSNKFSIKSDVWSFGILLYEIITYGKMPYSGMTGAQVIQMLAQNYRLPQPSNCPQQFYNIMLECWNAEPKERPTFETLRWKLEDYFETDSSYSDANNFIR
Chain of Phosphatidylinositol 4,5-bisphosphate 3-kinase catalytic subunit alpha isoform (Homo sapiens), P42336 [Q546K] (P42336 whole entry Q546K, canonical isoform): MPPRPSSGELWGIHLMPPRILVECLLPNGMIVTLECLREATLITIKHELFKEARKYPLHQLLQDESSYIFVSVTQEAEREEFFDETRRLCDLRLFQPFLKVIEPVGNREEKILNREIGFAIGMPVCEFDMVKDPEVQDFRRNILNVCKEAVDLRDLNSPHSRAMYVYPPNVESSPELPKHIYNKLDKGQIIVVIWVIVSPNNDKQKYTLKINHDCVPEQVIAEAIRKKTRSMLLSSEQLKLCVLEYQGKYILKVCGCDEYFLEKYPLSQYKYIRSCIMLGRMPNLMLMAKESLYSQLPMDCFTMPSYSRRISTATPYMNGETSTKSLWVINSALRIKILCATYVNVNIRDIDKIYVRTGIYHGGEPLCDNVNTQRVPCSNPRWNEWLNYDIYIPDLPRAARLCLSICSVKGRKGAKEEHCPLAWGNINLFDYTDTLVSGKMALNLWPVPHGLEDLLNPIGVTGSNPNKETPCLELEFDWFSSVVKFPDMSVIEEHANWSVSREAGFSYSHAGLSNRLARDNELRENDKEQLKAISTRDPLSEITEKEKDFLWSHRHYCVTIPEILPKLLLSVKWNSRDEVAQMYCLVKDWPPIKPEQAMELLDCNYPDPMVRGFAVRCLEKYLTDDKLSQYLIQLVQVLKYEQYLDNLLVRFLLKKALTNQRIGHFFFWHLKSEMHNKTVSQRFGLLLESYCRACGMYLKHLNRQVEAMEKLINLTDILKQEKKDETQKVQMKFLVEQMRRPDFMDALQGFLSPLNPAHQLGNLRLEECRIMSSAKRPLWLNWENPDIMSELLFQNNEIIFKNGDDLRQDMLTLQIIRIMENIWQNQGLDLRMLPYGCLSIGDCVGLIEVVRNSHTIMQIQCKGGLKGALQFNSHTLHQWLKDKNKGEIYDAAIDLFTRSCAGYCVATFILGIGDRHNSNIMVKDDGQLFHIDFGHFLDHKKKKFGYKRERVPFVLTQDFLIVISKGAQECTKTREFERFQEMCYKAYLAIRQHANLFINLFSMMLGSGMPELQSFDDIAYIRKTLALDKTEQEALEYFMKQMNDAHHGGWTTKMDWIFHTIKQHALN
Chain of Mast/stem cell growth factor receptor Kit (Homo sapiens), P10721 [A829P] (P10721 whole entry A829P): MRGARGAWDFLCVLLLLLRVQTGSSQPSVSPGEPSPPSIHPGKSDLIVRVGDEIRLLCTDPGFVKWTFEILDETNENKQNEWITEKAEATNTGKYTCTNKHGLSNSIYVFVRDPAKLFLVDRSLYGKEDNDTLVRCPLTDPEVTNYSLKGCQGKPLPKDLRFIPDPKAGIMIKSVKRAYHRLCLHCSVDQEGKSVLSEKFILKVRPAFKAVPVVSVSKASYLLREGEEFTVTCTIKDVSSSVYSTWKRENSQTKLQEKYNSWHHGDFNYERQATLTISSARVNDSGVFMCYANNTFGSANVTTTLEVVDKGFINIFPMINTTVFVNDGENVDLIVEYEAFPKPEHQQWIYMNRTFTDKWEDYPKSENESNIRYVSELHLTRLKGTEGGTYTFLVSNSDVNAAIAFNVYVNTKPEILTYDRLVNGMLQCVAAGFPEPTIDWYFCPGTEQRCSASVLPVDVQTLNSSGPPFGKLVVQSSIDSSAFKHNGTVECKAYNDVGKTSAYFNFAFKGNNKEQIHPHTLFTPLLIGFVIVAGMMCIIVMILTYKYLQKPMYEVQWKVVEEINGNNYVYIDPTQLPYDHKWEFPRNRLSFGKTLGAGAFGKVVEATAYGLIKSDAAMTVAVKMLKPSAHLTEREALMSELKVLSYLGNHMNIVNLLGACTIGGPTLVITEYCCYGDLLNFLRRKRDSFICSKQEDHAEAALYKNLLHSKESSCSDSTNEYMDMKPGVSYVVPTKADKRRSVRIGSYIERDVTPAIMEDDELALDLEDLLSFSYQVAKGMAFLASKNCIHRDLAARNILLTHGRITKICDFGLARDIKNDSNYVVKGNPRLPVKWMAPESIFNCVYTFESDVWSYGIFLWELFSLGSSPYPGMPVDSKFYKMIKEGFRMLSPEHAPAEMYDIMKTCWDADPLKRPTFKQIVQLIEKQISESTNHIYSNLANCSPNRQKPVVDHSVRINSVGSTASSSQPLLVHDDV

NS(=O)(=O)c1cc(NC(=O)C2(c3ccccc3Cl)CC2)ccc1Oc1cccc(Cl)c1 [BAY-207]
inactive: residual activity [1] 79% | residual activity [2] 86% | residual activity [3] 69% | residual activity [4] 100% | residual activity [5] 75% | residual activity [6] 100% | inhibition [7] 41.6% | residual activity [8] 99% | residual activity [9] 99% | residual activity [10] 82% | residual activity [11] 90% | residual activity [12] 100% | residual activity [13] 100% | residual activity [14] 95% | residual activity [15] 88% | residual activity [16] 87% | residual activity [17] 88% | residual activity [18] 69% | residual activity [19] 68% | residual activity [20] 83% | residual activity [21] 84% | residual activity [22] 91% | residual activity [23] 94% | inhibition [24] 15.1% | residual activity [25] 95% | residual activity [26] 100% | residual activity [27] 75% | residual activity [28] 100% | residual activity [29] 84% | residual activity [30] 88% | residual activity [31] 100% | residual activity [32] 73% | residual activity [33] 70% | residual activity [34] 100% | residual activity [35] 81% | inhibition [36] 11.5% | residual activity [37] 100% | residual activity [38] 77% | residual activity [39] 100%

NS(=O)(=O)c1cc(NC(=O)Cc2ccccc2)ccc1Oc1cccc(Cl)c1 [BAY-1797]
inactive: residual activity [1] 73% | residual activity [2] 89% | residual activity [3] 79% | residual activity [4] 84% | residual activity [5] 55% | residual activity [6] 100% | inhibition [7] 20.5% | residual activity [8] 93% | residual activity [9] 98% | residual activity [10] 92% | residual activity [11] 95% | residual activity [12] 100% | residual activity [13] 91% | residual activity [14] 74% | residual activity [15] 75% | residual activity [16] 91% | residual activity [17] 76% | residual activity [18] 74% | residual activity [19] 99% | residual activity [20] 93% | residual activity [21] 100% | residual activity [22] 100% | residual activity [23] 78% | inhibition [24] 5.04% | residual activity [25] 83% | residual activity [26] 100% | residual activity [27] 88% | residual activity [28] 95% | residual activity [29] 92% | residual activity [30] 75% | residual activity [31] 82% | residual activity [32] 73% | residual activity [33] 91% | residual activity [34] 75% | residual activity [35] 96% | inhibition [36] -4.85% | residual activity [37] 98% | residual activity [38] 95% | residual activity [39] 75%
